Values of other authors in US20160034667A1, “TAILORED DRUG THERAPIES AND METHODS AND SYSTEMS FOR DEVELOPING SAME” (COMPANION DX REFERENCE LAB, LLC, priority 2014, published 2016).
Read-outs that look alike come from different tables or passages of the source.

Assays:
[1] = tested on: NSCLC patients with drug-sensitive EGFR mutations
[2] = tested on: molecularly unselected NSCLC patients; conditions: FIG. 8 (A)
[3] = not given; remark: listed apart in the source
CYP2D6 = CYP2D6 (Homo sapiens, UniProt P10635)
CYP2D6, sequence (P10635 whole entry): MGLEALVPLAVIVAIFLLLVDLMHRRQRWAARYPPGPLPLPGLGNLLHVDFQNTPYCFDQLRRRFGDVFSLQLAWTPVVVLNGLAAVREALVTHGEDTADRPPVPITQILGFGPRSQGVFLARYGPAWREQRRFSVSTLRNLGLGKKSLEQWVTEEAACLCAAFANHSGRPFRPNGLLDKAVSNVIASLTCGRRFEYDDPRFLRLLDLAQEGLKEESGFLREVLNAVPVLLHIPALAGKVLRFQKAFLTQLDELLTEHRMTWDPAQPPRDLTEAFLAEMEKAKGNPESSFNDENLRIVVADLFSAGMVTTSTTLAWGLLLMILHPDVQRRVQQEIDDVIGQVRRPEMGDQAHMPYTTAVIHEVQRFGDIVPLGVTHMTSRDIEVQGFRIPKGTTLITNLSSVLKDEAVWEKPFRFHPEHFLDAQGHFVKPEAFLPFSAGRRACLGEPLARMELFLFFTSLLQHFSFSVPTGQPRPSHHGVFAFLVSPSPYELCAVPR

[4] = printed on the line of the peak range
[5] = printed on the line of the trough range

| Molecule | Critical (in vivo) | Therapeutic Range (in vivo) | t1/2 (in vivo) [h] | other results |
| --- | --- | --- | --- | --- |
| CC(=O)Nc1ccc(O)cc1 [Acetaminophen] | >40 mg/L | 10 to 25 mg/L | 1 to 3 | – |
| NCC[C@H](O)C(=O)N[C@@H]1C[C@H](N)[C@@H](O[C@H]2O[C@H](CN)[C@@H](O)[C@H](O)[C@H]2O)[C@H](O)[C@H]1O[C@H]1O[C@H](CO)[C@@H](O)[C@H](N)[C@H]1O [Amikacin] | >40 mg/L | – | 2.5 | Therapeutic Range, peak: peak 20-30 mg/L,; Therapeutic Range, trough: trough 1-8 mg/L |
| NC(=O)N1c2ccccc2C=Cc2ccccc21 [Carbamazepine] | >15 mg/L | 8 to 12 mg/L | 10 to 48 | – |
| C[C@H]1O[C@@H](O[C@H]2[C@@H](O)C[C@H](O[C@H]3[C@@H](O)C[C@H](O[C@H]4CC[C@@]5(C)[C@H](CC[C@@H]6[C@@H]5C[C@@H](O)[C@]5(C)[C@@H](C7=CC(=O)OC7)CC[C@]65O)C4)O[C@@H]3C)O[C@@H]2C)C[C@H](O)[C@@H]1O [Digoxin] | – | – | 33 to 51 | – |
| CCN(CC)CC(=O)Nc1c(C)cccc1C [Lidocaine] | >8.0 mg/L | 1.5 to 5 mg/L | – | – |
| [Li] [Lithium] | >2.0 mmol/L | 0.5 to 1.5 mmol/L | 19 | – |
| CCN(CC)CCNC(=O)c1ccc(NC(C)=O)cc1 [NAPA, N-acetylprocainamide] | – | – | 6 to 12 | – |
| CCC1(c2ccccc2)C(=O)NC(=O)NC1=O [Phenobarbital] | – | – | 72 to 100 | – |
| O=C1NC(=O)C(c2ccccc2)(c2ccccc2)N1 [Phenytoin] | >25 mg/L | 10 to 20 mg/L | 6 to 24 | – |
| CCC1(c2ccccc2)C(=O)NCNC1=O [Primidone] | >15 mg/L | 5 to 12 mg/L | 6 to 12 | – |
| C=C[C@H]1C[N@@]2CC[C@H]1C[C@@H]2[C@@H](O)c1ccnc2ccc(OC)cc12 [Quinidine] | >7 mg/L | – | – | – |
| O=C(O)c1ccccc1O [Salicylate] | >450 mg/L | 100 to 300 mg/L | 2 to 19 | – |
| Cn1c(=O)c2[nH]cnc2n(C)c1=O [Theophylline] | – | 10 to 20 mg/L | 3 to 9 | – |
| NC[C@H]1O[C@H](O[C@H]2[C@H](O)[C@@H](O[C@H]3O[C@H](CO)[C@@H](O)[C@H](N)[C@H]3O)[C@H](N)C[C@@H]2N)[C@H](N)C[C@@H]1O [Tobramycin] | – | – | 2 | Therapeutic Range, peak: peak 4-10 mg/L,; Critical [4]: >12 mg/L,; Critical [5]: >5 mg/L; Therapeutic Range, trough: trough 0.5-1.5 mg/L |
| CCCC(CCC)C(=O)O [Valproic acid] | >200 mg/L | 50 to 100 mg/L | 8 to 15 | – |
| CN[C@H](CC(C)C)C(=O)N[C@H]1C(=O)N[C@@H](CC(N)=O)C(=O)N[C@H]2C(=O)N[C@H]3C(=O)N[C@H](C(=O)N[C@H](C(=O)O)c4cc(O)cc(O)c4-c4cc3ccc4O)[C@H](O)c3ccc(c(Cl)c3)Oc3cc2cc(c3O[C@@H]2O[C@H](CO)[C@@H](O)[C@H](O)[C@H]2O[C@H]2C[C@](C)(N)[C@H](O)[C@H](C)O2)Oc2ccc(cc2Cl)[C@H]1O [Vancomycin] | – | – | 5.0 to 6.5 | Therapeutic Range, peak: peak 30-40 mg/L,; Critical [4]: >50 mg/L,; Critical [5]: >15 mg/L; Therapeutic Range, trough: trough 5-15 mg/L |
| C#Cc1cccc(Nc2ncnc3cc(OCCOC)c(OCCOC)cc23)c1 [erlotinib] | – | – | – | response in patients with drug-sensitive EGFR mutations at Exon 19 and 21 [1]: significantly better response |
| COc1cc2ncnc(Nc3ccc(F)c(Cl)c3)c2cc1OCCCN1CCOCC1 [gefitinib, Gefitinib] | – | – | – | progression free survival rate [2]: no detectable change; reduction of area under the curve of gefitinib ([3]; co-medication with CYP3A4 inducer rifampin): 83%; exposure to gefitinib ([3]; co-medication with CYP3A4 inhibitor (intraconazole), health men): increases exposure; inhibition of CYP2D6 activity (CYP2D6): weak inhibitor |
| Gentamicin | >12 mg/L | – | 2 | Therapeutic Range, peak: peak 4-10 mg/L,; Therapeutic Range, trough: trough 1-2 mg/L |
